How the values were obtained:
786-0 cells = assay: Cell viability assay on 786-0; assay type: cell-based, human; settings: 72 h
Description: (§1) Cell viability assay was performed as previously described (31). Cells were seeded in a 96-well culture plate at a density of 2.5-10×10^3 cells/well, depending on cell type (ECRF24 in gelatin-coated plates), 24 h prior to the application drug combinations or control conditions (in a total volume of 50 μl) and were subsequently incubated for an additional 72 h. Cell viability was assessed using the CellTiter-Glo luminescent cell viability assay (Promega, Madison, Wisc., USA).

ECRF24 cells = assay: Cell viability (proliferation) assay on endothelial cells ECRF24; assay type: cell-based, human; settings: for single-drug dose required for the same EC proliferation inhibition as the best combination (90% inhibition): assuming linear dose-response curves; for theoretical dose reduction in combination: vs single-drug dose for 90% inhibition
Description: (§2) Cell viability assay was performed as previously described (31).
The feedback system control (FSC) technique was employed as previously described (13, 33, 34). In the research presented here, the FSC technique is implemented using the differential evolution (DE) algorithm (35) and two separate optimization were performed with the cellular outputs of ECRF cell viability (proliferation) and migration (wound healing) assays. 19 drug combinations were tested per iteration and 11 iterations were performed in each optimization, or until a plateau in the best output value was reached.
Drug mixing was performed as follows: stock solutions were first used to prepare the highest concentration of each compound and lower concentrations were prepared through serial dilutions of the higher concentrations. All drug concentrations were prepared 9 times more concentrated than desired to account for dilution by other compounds (or medium when a compound was not included). The drug mixtures were prepared directly before applying drug combinations to cells by first adding the required amount of medium for each combination (i.e.
all compounds which are included at concentration 0) and then adding the required concentration of each compound, always in the same order. The cells were incubated in 50 μl of each mixture for 72 h in the proliferation assay or for 6 h in the migration assay.
Second order linear regression models were generated using the data obtained from each optimization. Data was modeled using real concentration values and both concentration values and proliferation output data was transformed using the z-score function in Matlab. The negative values of the 2nd-order terms regression coefficients corresponds to synergistic effect, the positive value to the antagonistic effect. Appropriate data and model verification methods were implemented to ensure the accuracy and reliability of predictions made based on these models. The main assumptions of linear regression models were verified (i.e. weak exogeneity, linearity, constant variance, independence of errors, and lack of multicolinearity). As the presence of multicolinearity was indicated in a few of the regressors in the second order linear regression model of the proliferation data (based on the analysis of variance inflation factors (VIF) and condition indices), a stepwise linear regression was also performed to isolate the most important regressors and remove instabilities in the regression analysis due to multicolinearity. Drug interactions were additionally analyzed using the Compusyn software (14), where a ‘combination index’ (CI) is calculated for drug combinations and CI values less than […] indicate synergistic drug combinations, while CI-values greater than 1 indicate antagonistic drug.

HUVEC = assay: Cell viability assay on HUVEC; assay type: cell-based, human; settings: 72 h
Description: as §2

A2780 cells = assay: Cell viability assay on A2780; assay type: cell-based, human; settings: 72 h
Description: as §1

[1] = tested on: panAKT, pMAPK and ribosomal protein S6 (pS6); assay: Western blot of panAKT, pMAPK and pS6 in ECRF24; assay type: cell-based, human; settings: 5 hrs incubation
Description: Cells were seeded in a 6-well plate (30×10^4 cells per well) 24 h prior to the removal of medium and application of selected drug combinations or DMSO control (total volume of 2 mL). After an additional 5 hrs of incubation at the given conditions, medium was removed, cells were washed with PBS and 100 μl of buffer lysate was added (prepared on ice and composed of RIPA, protease inhibitors (1:1000) and sodium orthovanadate (1:1000)). Wells were then scratched and cell lysate solution was removed and put on ice for 10 min. Cell supernatant was isolated after centrifuging solution at 12,000 min^−1 for 15 min. A solution of blue buffer (4×)+u-Page Reducing Agent (10×) was added to supernatant and samples were kept at 95 ° C. for 5 min.
The samples were then run in an electrophoresis gel for 90 min at 125 V. The monoclonal antibodies included phosphorylated Akt (473), total Akt, phosphorylated MAPK, and phosphorylated S6 (235/236 hamster, Cell Signaling). Cell extracts were prepared by detergent lysis [50 mmol/L Tris-HCl (pH 8.0), 150 mmol/L NaCl, 1% NP40, 0.5% sodium deoxycholate, 0.1% SDS containing protease (Sigma, St. Louis, Mo.) and phosphatase (Sigma) inhibitor cocktails]. The soluble protein concentration was determined by micro-BSA assay (Pierce, Rockford Ill.). Protein immunodetection was done by electrophoretic transfer of SDS-PAGE separated proteins to nitrocellulose, incubation with antibody and chemiluminescent second step detection (PicoWest; Pierce). Protein expression was quantified in Fiji by densitometry as previously described (39, 40). Results were expressed as a relative ratio between samples and control.

[2] = tested on: A2780 tumors grafted on the CAM; assay: Human ovarian carcinoma (A2780) grafted on the chicken chorioallantoic membrane (CAM); assay type: in vivo, chicken embryo; settings: for tumor growth inhibition, single compound at high concentration: high concentration: 29 μg/kg (4) and 615 μg/kg (8); for tumor growth inhibition, single compound at low concentration: low concentration: 2.9 μg/kg (4) and 307 μg/kg (8)
Description: Human ovarian carcinoma tumors were implanted on the CAM as previously described (36). Briefly, fertilized chicken eggs were incubated in a hatching incubator (37° C. and relative humidity 65%), as previously described (37). […] Treatment began when vascularized tumors were visible, 3 days after tumor implantation (EDD10). Drug combinations were prepared as done in in vitro assays, were pre-mixed and administered as a 20 μL intravenously injection. […] On the last day of experiment CAM experiments, tumors were resected, fixed overnight in zinc fixative solution as previously described (38). […] Primary antibody incubation was performed overnight (DIA-310; Dianova, Hamburg, Germany).

LS174T tumors = assay: Human colorectal adenocarcinoma (LS174T) grafted intradermally in Swiss nu/nu mice; assay type: in vivo; settings: treated daily; for tumor growth inhibition: doses per Table 2
Description: Mice were randomized into groups and treated with sham (CTRL), individual drugs, 4+8+9 (M1 and M2), and 4+8 (M3), respectively (Table 2) Individual drugs inhibited tumor growth only by approximately 0% and 6% (4) at 5 and 15 mg/kg, 10% (8) or 23% (9), whereas combinations M1 and M2 by 76±14% and 25±17%, respectively (FIG. 5D). On the last day of the experiment (FIG. 5E) tumors were resected, and paraffin embedded for immunohistochemical staining for endothelial cells (CD31). In M1-treated tumors microvessel density was approximately 80% lower then in sham-treated tumors (CTRL), FIG. 5F.
FIG. 5. Inhibition of A2780 (A-C) or LS174T (D-F) tumor growth in vivo by the best mixtures optimized. (A) Growth curve of A2780 tumors grafted on the CAM showing tumor volume with respect to treatment day. Treatment was administered i.v. on days 1 and 2 and tumors were excised on the 8th (last) day of experiment. Data points represent the average tumor volume as a percentage of the final control volume per experiment. (B) Figures show representative tumors of sham treated (CTRL) and F drug combination. (C) The microvessel density profiles are expressed as the number of vessels per mm^2 and presented as a percentage of a control. (D) LS174T grafted intradermally in Swiss nu/nu mice and treated daily with single compounds or mixtures. Data points represent the average tumor volume as a percentage of the final control volume per experiment and error bars represent the SEM; N=3-9. *p <0.05 and **p<0.01. ‘S’ indicates synergy (Cl≦0.8). (E) The microvessel density profiles are expressed as the number of vessels per mm^2 and presented as a percentage of a control. […] The bar in the upper right image represents 0.5 mm and is valid for both images. Data points represent average values of 2 independent experiments and error bars represent SEM; N=3-7; **p<0.01.

[3] = tested on: renal cell carcinoma (Caki-1) cells; settings: combinations of Table 4
Description: as §1

With CNC(=O)c1ccccc1Sc1ccc2c(/C=C/c3ccccn3)n[nH]c2c1 [compound 3, axitinib] the “inhibition of 786-0 cell viability” value (786-0 cells) was “approx. 30%”.
For C#Cc1cccc(Nc2ncnc3cc(OCCOC)c(OCCOC)cc23)c1 [compound 4, erlotinib], the “single-drug dose required for the same EC proliferation inhibition as the best combination (90% inhibition)” value (shortened to “single-drug dose required … (90% inhibition)”) (ECRF24 cells) was “approximately 50 μM”, the “theoretical dose reduction in combination” value (“theoretical dose reduction” below) (ECRF24 cells) was 5 fold and the “inhibition of HUVEC viability” value (HUVEC) was “more sensitive”. The “inhibition of A2780 cell viability” value (A2780 cells) was “approximately 40%”, the pAkt protein [1] was “slight decrease” and the “tumor growth inhibition, single compound at high concentration” value [2] was about 20%. The “tumor growth inhibition, single compound at low concentration” value [2] was “approximately 6%”, the “tumor growth inhibition at 5 mg/kg” value (LS174T tumors; 5 mg/kg) was “approximately 0%” and the “tumor growth inhibition at 15 mg/kg” value (LS174T tumors; 15 mg/kg) was about 6%.
With Cc1ccc(C(C)C)cc1.[Cl][Ru]([Cl])[PH]12CN3CN(CN(C3)C1)C2 [compound 8, RAPTA-C] the “single-drug dose required … (90% inhibition)” value (ECRF24 cells) was about 2000 µM, the “theoretical dose reduction” value (ECRF24 cells) was 11 fold and the pAkt protein [1] was “slight decrease”. For the same molecule, the “tumor growth inhibition, single compound at high concentration” value [2] was about 20%, the “tumor growth inhibition, single compound at low concentration” value [2] was “approximately 6%” and the tumor growth inhibition (LS174T tumors) was about 10%.
Cn1c(=O)n(-c2ccc(C(C)(C)C#N)cc2)c2c3cc(-c4cnc5ccccc5c4)ccc3ncc21 [compound 9, BEZ-235] was tested, and the “single-drug dose required … (90% inhibition)” value (ECRF24 cells) was about 0.12 µM, the “theoretical dose reduction” value (ECRF24 cells) was 6 fold and the “inhibition of HUVEC viability” value (HUVEC) was “more sensitive”. For the same molecule, the pS6 expression [1] was “nearly complete inhibition”, the pS6 expression ([1]; listed as BEZ235) was “inhibited” and the “tumor growth inhibition, single compound at its applied concentration” value ([2]; limiting compound, dose used in the combinations) was “approximately 35%”. It also gave a tumor growth inhibition (LS174T tumors) of about 23%.
With AZD4547 the “inhibition of Caki-1 cell proliferation / synergy” value [3] was “effective and synergistic inhibition”.
